Our source for the IC50 values is patent publication US8993632B2, “Inhibitors of the 11-beta-hydroxysteroid dehydrogenase type 1 enzyme” (AbbVie Inc., priority 2005, dated 2015).

The target of assay [1] is T1, truncated human 11β-HSD-1 enzyme (24-287AA) (Homo sapiens, UniProt P28845).
T1 construct: truncated human 11β-HSD-1 enzyme (24-287AA); made in house; host or cells: E. coli (crude lysate)
In words: 11β-HSD-1 enzymatic Scintillation Proximity Assay (SPA). The assay is classed as biochemical. The procedure:
(§1) The reaction was stopped by adding a non-specific 11β-HSD inhibitor, 18β-glycyrrhetinic acid. The tritiated cortisol was captured by a mixture of an anti-cortisol monoclonal antibody and SPA beads coated with anti-mouse antibodies. The reaction plate was shaken at room temperature and the radioactivity bound to SPA beads was then measured on a β-scintillation counter. The 11-βHSD-1 assay was carried out in 96-well microtiter plates in a total volume of 220 μl. […] In order to drive the reaction in the forward direction, 1 mM G-6-P was also added. Solid compound was dissolved in DMSO to make a 10 mM stock followed by a subsequent 10-fold dilution with 3% DMSO in Tris/EDTA buffer (pH 7.4). […] Reactions were initiated by the addition of 10 μl of 0.1 mg/ml E. coli lysates overexpressing 11β-HSD-1 enzyme. After shaking and incubating plates for 30 minutes at room temperature, reactions were stopped by adding 10 μl of 1 mM glycyrrhetinic acid. The product, tritiated cortisol, was captured by adding 10 μl of […] monoclonal anti-cortisol antibodies and 100 μl SPA beads coated with anti-mouse antibodies. After shaking for 30 minutes, plates were read on a liquid scintillation counter Topcount. Percent inhibition was calculated based on the background and the maximal signal. Wells that contained substrate without compound or enzyme were used as the background, while the wells that contained substrate and enzyme without any compound were considered as maximal signal. Percent of inhibition of each compound was calculated relative to the maximal signal and IC50 curves were generated. This assay was applied to 11β-HSD-2 as well, whereby tritiated cortisol and NAD^+ were used as substrate and cofactor, respectively.

Assay [2] concerns the target T2, human 11-β-HSD-2 (Homo sapiens, UniProt P80365).
T2 sequence (P80365 1-405): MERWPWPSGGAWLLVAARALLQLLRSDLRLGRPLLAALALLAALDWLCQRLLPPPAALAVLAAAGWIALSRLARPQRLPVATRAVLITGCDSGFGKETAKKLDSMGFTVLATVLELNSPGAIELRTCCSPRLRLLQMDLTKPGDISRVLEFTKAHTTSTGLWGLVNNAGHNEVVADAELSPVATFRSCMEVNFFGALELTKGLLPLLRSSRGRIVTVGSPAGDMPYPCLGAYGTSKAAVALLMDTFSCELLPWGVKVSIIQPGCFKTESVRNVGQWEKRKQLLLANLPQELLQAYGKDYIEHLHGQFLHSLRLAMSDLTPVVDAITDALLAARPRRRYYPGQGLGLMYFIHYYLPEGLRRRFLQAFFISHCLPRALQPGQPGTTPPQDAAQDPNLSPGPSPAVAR
Nature of the assay: 11β-HSD-2 Scintillation Proximity Assay (tritiated cortisol, NAD+). The assay is classed as biochemical. The conditions noted are these: human enzyme, SPA. Here is the method:
as §1
On the technique in general: In a scintillation proximity assay essentially only radioactivity close to the scintillant gives light.

Bounds are passed on as bounds.

T1 sequence (P28845 24-287): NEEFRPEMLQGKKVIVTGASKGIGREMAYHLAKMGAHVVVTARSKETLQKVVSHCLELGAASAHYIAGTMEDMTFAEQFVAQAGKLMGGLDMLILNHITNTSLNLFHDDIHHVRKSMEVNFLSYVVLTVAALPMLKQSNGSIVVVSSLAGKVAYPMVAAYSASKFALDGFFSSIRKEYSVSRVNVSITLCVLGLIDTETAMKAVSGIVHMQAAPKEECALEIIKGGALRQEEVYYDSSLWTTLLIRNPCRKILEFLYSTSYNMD

By IC50 is commonly meant the point on the concentration scale where inhibition reaches its midpoint. In the case of `CC(C)(C(=O)N[C@@H]1[C@@H]2C[C@@H]3C[C@H]1C[C@@](C(N)=O)(C3)C2)c1cccc(Br)c1` [GG, E-4-{[2-(3-bromophenyl)-2-methylpropanoyl]amino}adamantane-1-carboxamide], the IC50 in assay [1] was 17 nM; in assay [2], 9300 nM.
In the case of `NC(=O)[C@]12C[C@@H]3C[C@H](C1)[C@@H](NC(=O)C1(c4cccc(F)c4)CCCC1)[C@@H](C3)C2` [Compound L, E-4-({[1-(3-fluorophenyl)cyclopentyl]carbonyl}amino)adamantane-1-carboxamide], the IC50 in assay [1] came out at 25 nM; in assay [2], 16000 nM.
In assay [1], `CC(C)(C(=O)N[C@@H]1[C@@H]2C[C@@H]3C[C@H]1C[C@@](C(N)=O)(C3)C2)c1ccc(Cl)cc1` [J, E-4-{[2-(4-chlorophenyl)-2-methylpropanoyl]amino}adamantane-1-carboxamide] registered an IC50 of 33 nM.
In the case of `NC(=O)[C@]12C[C@@H]3C[C@H](C1)[C@@H](NC(=O)C1(c4ccccc4F)CCCC1)[C@@H](C3)C2` [O, E-4-({[1-(2-fluorophenyl)cyclopentyl]carbonyl}amino)adamantane-1-carboxamide], the figures for the IC50 in assay [1] and in assay [2] were 38 nM and 16000 nM, respectively.
The matching figures for `CC(C)(C(=O)N[C@@H]1[C@@H]2C[C@@H]3C[C@H]1C[C@@](C(N)=O)(C3)C2)c1ccc(Br)cc1` [Z, E-4-{[2-(4-bromophenyl)-2-methylpropanoyl]amino}adamantane-1-carboxamide]: 21 nM and 23000 nM.
The matching figures for `NC(=O)[C@]12C[C@@H]3C[C@H](C1)[C@@H](NC(=O)C1(c4ccc(Cl)cc4)CCCCC1)[C@@H](C3)C2` [G, E-4-({[1-(4-chlorophenyl)cyclohexyl]carbonyl}amino)adamantane-1-carboxamide]: 59 nM and 7400 nM.
The matching figures for `CC(C)(C(=O)N[C@@H]1[C@@H]2C[C@@H]3C[C@H]1C[C@@](C(N)=O)(C3)C2)c1ccc(-c2ccncc2)cc1` [Compound T, E-4-{[2-methyl-2-(4-pyridin-4-ylphenyl)propanoyl]amino}adamantane-1-carboxamide]: 31 nM and more than 30000 nM.
As for `CC1(C(=O)N[C@@H]2[C@@H]3C[C@@H]4C[C@H]2C[C@@](C(N)=O)(C4)C3)CCCCC1` [P, E-4-{[(1-methylcyclohexyl)carbonyl]amino}adamantane-1-carboxamide], the IC50 was 38 nM in assay [1] and more than 30000 nM in assay [2].
As to `CC(C)(C(=O)N[C@@H]1[C@@H]2C[C@@H]3C[C@H]1C[C@@](C(N)=O)(C3)C2)c1ccsc1` [V, E-4-[(2-methyl-2-thien-3-ylpropanoyl)amino]adamantane-1-carboxamide], the results for the IC50 in assay [1] and in assay [2] were 19 nM and 15000 nM, respectively.
The matching figures for `CC(C)(C(=O)N[C@@H]1[C@@H]2C[C@@H]3C[C@H]1C[C@@](C(=O)NCc1ccc(C(=O)O)cc1)(C3)C2)c1cccs1` [JJ, 4-{[({(E)-4-[(2-methyl-2-thien-2-ylpropanoyl)amino]-1-adamantyl}carbonyl)amino]methyl}benzoic acid]: 95 nM and 60000 nM.
In the case of `Cc1ccccc1CN1CCC(C)(C(=O)N[C@@H]2[C@@H]3C[C@@H]4C[C@H]2C[C@@](C(N)=O)(C4)C3)C1=O` (stereo partly drawn) [CC], the IC50 in assay [1] worked out at 23 nM; in assay [2], 12000 nM.
Regarding `CC1(C(=O)N[C@@H]2[C@@H]3C[C@@H]4C[C@H]2C[C@@](C(N)=O)(C4)C3)CCN(Cc2ccccc2Cl)C1=O` (stereo partly drawn) [DD], the IC50 in assay [1] worked out at 23 nM; in assay [2], 6300 nM.
Turning to `NC(=O)[C@]12C[C@@H]3C[C@H](C1)[C@@H](NC(=O)C1(c4ccc(Cl)cc4)CCCC1)[C@@H](C3)C2` [I, E-4-({[1-(4-chlorophenyl)cyclopentyl]carbonyl}amino)adamantane-1-carboxamide], half-maximal inhibition in assay [2] (IC50) was put at 12000 nM.
On to `NC(=O)[C@]12C[C@@H]3C[C@H](C1)[C@@H](NC(=O)C1(c4ccc(Cl)cc4Cl)CC1)[C@@H](C3)C2` [Q, E-4-({[1-(2,4-dichlorophenyl)cyclopropyl]carbonyl}amino)adamantane-1-carboxamide], for which the IC50 in assay [1] was 36 nM; in assay [2], 16000 nM.
In the case of `NC(=O)[C@]12C[C@@H]3C[C@H](C1)[C@@H](NC(=O)C1(c4ccc(Cl)cc4)CC1)[C@@H](C3)C2` [H, E-4-({[1-(4-chlorophenyl)cyclopropyl]carbonyl}amino)adamantane-1-carboxamide], the IC50 was 33 nM in assay [1] and more than 30000 nM in assay [2].
Consider `CC(C)(C(=O)N[C@@H]1[C@@H]2C[C@@H]3C[C@H]1C[C@@](C(N)=O)(C3)C2)c1ccc(C(F)(F)F)cn1` [W, E-4-({2-methyl-2-[5-(trifluoromethyl)pyridin-2-yl]propanoyl}amino)adamantane-1-carboxamide], for which the IC50 in assay [1] was 23 nM; in assay [2] it was more than 30000 nM.
The matching figures for `CC(C)(C(=O)N[C@@H]1[C@@H]2C[C@@H]3C[C@H]1C[C@@](C(N)=O)(C3)C2)c1ccc(-c2ccc(C(F)(F)F)cn2)cc1` [X, E-4-[(2-methyl-2-{4-[5-(trifluoromethyl)pyridin-2 yl]phenyl}propanoyl)amino]adamantane-1-carboxamide]: 104 nM and more than 30000 nM.
`NC(=O)[C@]12C[C@@H]3C[C@H](C1)[C@@H](NC(=O)C1(c4ccc(F)cc4Cl)CCCC1)[C@@H](C3)C2` [Compound M, E-4-({[1-(2-chloro-4-fluorophenyl)cyclopentyl]carbonyl}amino)adamantane-1-carboxamide]: the figures for the IC50 in assay [1] and in assay [2] were 30 nM and more than 30000 nM, respectively.
As for `NC(=O)[C@]12C[C@@H]3C[C@H](C1)[C@@H](NC(=O)C1(c4ccccc4)CCCC1)[C@@H](C3)C2` [Compound K, E-4-{[(1-phenylcyclopentyl)carbonyl]amino}adamantane-1-carboxamide], the values for the IC50 in assay [1] and in assay [2] were 43 nM and 16000 nM, respectively.
The matching figures for `COc1ccc(C2(C(=O)N[C@@H]3[C@@H]4C[C@@H]5C[C@H]3C[C@@](C(N)=O)(C5)C4)CC2)cc1` [R, E-4-({[1-(4-methoxyphenyl)cyclopropyl]carbonyl}amino)adamantane-1-carboxamide]: 27 nM and 21000 nM.
The matching figures for `Cn1cc(-c2ccc(C(C)(C)C(=O)N[C@@H]3[C@@H]4C[C@@H]5C[C@H]3C[C@@](C(N)=O)(C5)C4)cc2)cn1` [FF, E-4-({2-methyl-2-[4-(1-methyl-1H-pyrazol-4-yl)phenyl]propanoyl}amino)adamantane-1-carboxamide]: 28 nM and more than 100000 nM.
Take `NC(=O)[C@]12C[C@@H]3C[C@H](C1)[C@@H](NC(=O)C1(c4ccc(F)cc4)CCCC1)[C@@H](C3)C2` [N, E-4-({[1-(4-fluorophenyl)cyclopentyl]carbonyl}amino)adamantane-1-carboxamide]: the IC50 in assay [1] is 31 nM; in assay [2], more than 30000 nM.
On to `CC(C)(C(=O)N[C@@H]1[C@@H]2C[C@@H]3C[C@H]1C[C@@](C(N)=O)(C3)C2)c1ccc(-c2cccnc2)cc1` [II, E-4-{[2-methyl-2-(4-pyridin-3-ylphenyl)propanoyl]amino}adamantane-1-carboxamide], for which half-maximal inhibition in assay [2] (IC50) was put at 44000 nM. This counts as double-digit micromolar.
For the compound `Cc1noc(C)c1-c1ccc(C(C)(C)C(=O)N[C@@H]2[C@@H]3C[C@@H]4C[C@H]2C[C@@](C(N)=O)(C4)C3)cc1` [HH, E-4-({2-[4-(3,5-dimethylisoxazol-4-yl)phenyl]-2-methylpropanoyl}amino)adamantane-1-carboxamide], the IC50 in assay [1] came out at 44 nM; in assay [2], 40000 nM.
The matching figures for `COc1ccc(C2(C(=O)N[C@@H]3[C@@H]4C[C@@H]5C[C@H]3C[C@@](C(N)=O)(C5)C4)CCCC2)cc1` [Y, E-4-({[1-(4-methoxyphenyl)cyclopentyl]carbonyl}amino)adamantane-1-carboxamide]: 18 nM and 13000 nM.
The matching figures for `CC(C)(C(=O)N[C@@H]1[C@@H]2C[C@@H]3C[C@H]1C[C@@](C(N)=O)(C3)C2)c1cccs1` [U, E-4-[(2-methyl-2-thien-2-ylpropanoyl)amino]adamantane-1-carboxamide]: 16 nM and 12000 nM.
On to `Cc1ccc(C2(C(=O)N[C@@H]3[C@@H]4C[C@@H]5C[C@H]3C[C@@](C(N)=O)(C5)C4)CC2)cc1` [S, E-4-({[1-(4-methylphenyl)cyclopropyl]carbonyl}amino)adamantane-1-carboxamide], for which the values for the half-inhibitory concentration (IC50) in assay [1] and in assay [2] were 37 nM and 15000 nM, respectively.
